{
  "source": "patent US20040106135A1",
  "about": "“Assay for PPAR ligand dependent gene modulation” (priority 2002, published 2004)",
  "key": {"[1]": {"test": "Serum triglyceride levels in fat-fed hamsters", "type": "in vivo, hamster", "description": "Blood was sampled at 8, 16 and 48 hours following a single drug treatment for total triglyceride analysis. The mean levels (+/−SEM) for 3 animals per group are shown. The “*” indicates a statistically significant difference with respect to control (p<0.01) by Student's t-test. Animal studies: All procedures performed in this study were approved by the Animal Care and Use committee, and conform to the guide for the Care and Use of Laboratory Animals Act. Male Syrian Golden hamsters (Charles River, Wilmington Mass.) weighing 120-140 g, were used in the study. Animals were kept on a 12-hour light/dark cycle and allowed free access to normal chow and water. The animals were divided into groups according to weight, and fed either an high fat diet (0.5% cholesterol, 5% coconut oil) (N=3) or normal chow diet (N=3). […] At intervals of 0, 8, 16 and 48 hr animals were anesthetized with CO2. Blood was collected by cardiac puncture into EDTA containing tubes; plasma was isolated for immediate analysis of triglycerides by the Dade Clinical Analyser®. Animals were then euthanized with CO2. The liver and kidneys were collected, flash frozen in liquid nitrogen and stored at −80° C. for future gene expression analysis."}, "HK-2 cells": {"system": "HK-2 cells", "test": "Transcriptional profiling by DNA microarray, HK-2 cells", "type": "cell-based, human", "details": "300 nM GW9578, 24 hours", "description": "Points corresponding to PDK-4 and ADRP are highlighted in the plot. Points falling outside of the inner lines are changed by greater than 2-fold; those falling outside the outer lines by greater than 3-fold.\nExpression profiling: Expression profiling of RNA samples was performed essentially as described (Lockhart et al., (1996) Nat. Biotechnol. 14:1675-80) using the Affymetrix human U95Av2 array. Briefly, RNA was isolated from 100 mm cell culture dishes, DNased, and 15 μg used as a template for double stranded cDNA synthesis according to standard protocols (Invitrogen). Reverse transcription was primed using a T7-modified oligo-dT primer (5-[…]-d(T)24-3′) (SEQ ID NO: 1). In vitro transcription was then performed on each double stranded cDNA synthesis, according to the manufacturer's (Enzo Diagnostics) instructions. The resultant cRNA products were purified using RNeasy columns (Qiagen), pooled, and quantitated spectrophotometrically. […]\nData Analysis: Affymetrix CEL files from GeneChip 4.0 (Affymetrix) were imported into Resolver 2.0 under an empirically derived Affymetrix error model (Rosetta Inpharmatics). […] Accordingly, the statistical significance (P-value) of a given expression data point takes into account the underlying error associated with the Affymetrix transcript abundance measurements as determined by this platform-specific error model. […]"}},
  "note": "Marks after values point to notes of the source that are not given here.",
  "data": [
    {"smiles": "CCCCCCCN(CCc1ccc(SC(C)(C)C(=O)O)cc1)C(=O)Nc1ccc(F)cc1F", "note": "[GW9578, ureido-thioisobutyric acid]", "values": [
      {"measurement": "Change of triglyceride levels compared with the control group", "setting": "[1]; single dose, 8, 16 and 48 hours", "result": "significantly decreased"},
      {"measurement": "Serum triglyceride levels, 48 h", "setting": "[1]; single dose, mean +/- SEM, 3 animals, control 208.67", "result": "104.67 + 12.02*"},
      {"measurement": "Serum triglyceride levels, 8 h", "setting": "[1]; single dose, mean +/- SEM, 3 animals, control 261.33", "result": "106.00 + 46.22*"},
      {"measurement": "Serum triglyceride levels, 16 h", "setting": "[1]; single dose, mean +/- SEM, 3 animals, control 308.00", "result": "142.33 + 51.31*"},
      {"measurement": "Increase of ADRP transcript versus controls", "setting": "HK-2 cells", "result": "approximately 4 fold"},
      {"measurement": "Increase of PDK-4 transcript versus controls", "setting": "HK-2 cells", "result": "approximately 4 fold"}
    ]}
  ]
}
